Measured values from PMC6120666 (The EMBO Journal, 2018).

Tests used:
Test in all cases: Drug affinity chromatography with c-ponatinib and LC-MS/MS (ponatinib interactome)
Format in all cases: binding
[1] = target: T1, proteins of U2OS cell lysate (Homo sapiens, UniProt Q96MW5); conditions: COG8, Conserved oligomeric Golgi complex subunit 8
T1 construct: Proteins enriched by c-ponatinib from U2OS cell lysate; endogenous in cells; host or cells: U2OS cell lysate
Summary of the method: (§1)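 Proteins were identified by nano-UPLC–MS/MS after elution with formic acid and trypsin digestion. They were captured from U2OS lysate (2 mg protein per pulldown, NP-40 buffer) on amine-coupled NHS beads during a 2 h incubation at 4 °C.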

[2] = target: T2, proteins of U2OS cell lysate (Homo sapiens, UniProt P84090); conditions: ERH, Enhancer of rudimentary homolog
T2 construct: Proteins enriched by c-ponatinib from U2OS cell lysate; endogenous in cells; host or cells: U2OS cell lysate
Summary of the method: as §1

[3] = target: T3, proteins of U2OS cell lysate (Homo sapiens, UniProt O00303); conditions: EIF3F, Eukaryotic translation initiation factor 3 subunit F
T3 construct: Proteins enriched by c-ponatinib from U2OS cell lysate; endogenous in cells; host or cells: U2OS cell lysate
Summary of the method: as §1

[4] = target: T4, proteins of U2OS cell lysate (Homo sapiens, UniProt P35579); conditions: MYH9, Myosin-9
T4 construct: Proteins enriched by c-ponatinib from U2OS cell lysate; endogenous in cells; host or cells: U2OS cell lysate
Summary of the method: as §1

[5] = target: T5, proteins of U2OS cell lysate (Homo sapiens, UniProt P49756); conditions: RBM25, RNA-binding protein 25
T5 construct: Proteins enriched by c-ponatinib from U2OS cell lysate; endogenous in cells; host or cells: U2OS cell lysate
Summary of the method: as §1

[6] = target: T6, proteins of U2OS cell lysate (Homo sapiens, UniProt A1L0T0); conditions: ILVBL, Acetolactate synthase-like protein
T6 construct: Proteins enriched by c-ponatinib from U2OS cell lysate; endogenous in cells; host or cells: U2OS cell lysate
Summary of the method: as §1

[7] = target: T7, proteins of U2OS cell lysate (Homo sapiens, UniProt Q9ULV4); conditions: CORO1C, Coronin-1C
T7 construct: Proteins enriched by c-ponatinib from U2OS cell lysate; endogenous in cells; host or cells: U2OS cell lysate
Summary of the method: as §1

[8] = target: T8, proteins of U2OS cell lysate (Homo sapiens, UniProt P15880); conditions: RPS2, 40S ribosomal protein S2
T8 construct: Proteins enriched by c-ponatinib from U2OS cell lysate; endogenous in cells; host or cells: U2OS cell lysate
Summary of the method: as §1

[9] = target: T9, proteins of U2OS cell lysate (Homo sapiens, UniProt Q9UHD8); conditions: SEPT9, Septin-9
T9 construct: Proteins enriched by c-ponatinib from U2OS cell lysate; endogenous in cells; host or cells: U2OS cell lysate
Summary of the method: as §1

[10] = target: T10, proteins of U2OS cell lysate (Homo sapiens, UniProt P34932); conditions: HSPA4, Heat shock 70 kDa protein 4
T10 construct: Proteins enriched by c-ponatinib from U2OS cell lysate; endogenous in cells; host or cells: U2OS cell lysate
Summary of the method: as §1

[11] = target: T11, proteins of U2OS cell lysate (Homo sapiens, UniProt P47897); conditions: QARS, Glutamine--tRNA ligase
T11 construct: Proteins enriched by c-ponatinib from U2OS cell lysate; endogenous in cells; host or cells: U2OS cell lysate
Summary of the method: as §1

[12] = target: T12, proteins of U2OS cell lysate (Homo sapiens, UniProt P62249); conditions: RPS16, 40S ribosomal protein S16
T12 construct: Proteins enriched by c-ponatinib from U2OS cell lysate; endogenous in cells; host or cells: U2OS cell lysate
Summary of the method: as §1

[13] = target: T13, proteins of U2OS cell lysate (Homo sapiens, UniProt Q13546); conditions: RIPK1, Receptor-interacting serine/threonine-protein kinase 1
T13 construct: Proteins enriched by c-ponatinib from U2OS cell lysate; endogenous in cells; host or cells: U2OS cell lysate
Summary of the method: as §1

[14] = target: T14, proteins of U2OS cell lysate (Homo sapiens, UniProt P49759); conditions: CLK1, Dual specificity protein kinase CLK1
T14 construct: Proteins enriched by c-ponatinib from U2OS cell lysate; endogenous in cells; host or cells: U2OS cell lysate
Summary of the method: as §1

[15] = target: T15, proteins of U2OS cell lysate (Homo sapiens, UniProt P29323); conditions: EPHB2, Ephrin type-B receptor 2
T15 construct: Proteins enriched by c-ponatinib from U2OS cell lysate; endogenous in cells; host or cells: U2OS cell lysate
Summary of the method: as §1

[16] = target: T16, proteins of U2OS cell lysate (Homo sapiens, UniProt P07355); conditions: ANXA2;ANXA2P2, Annexin A2
T16 construct: Proteins enriched by c-ponatinib from U2OS cell lysate; endogenous in cells; host or cells: U2OS cell lysate
Summary of the method: as §1

[17] = target: T17, proteins of U2OS cell lysate (Homo sapiens, UniProt P50991); conditions: CCT4, T-complex protein 1 subunit delta
T17 construct: Proteins enriched by c-ponatinib from U2OS cell lysate; endogenous in cells; host or cells: U2OS cell lysate
Summary of the method: as §1

[18] = target: T18, proteins of U2OS cell lysate (Homo sapiens, UniProt P62266); conditions: captured protein RPS23, Rank 181
T18 construct: Proteins enriched by c-ponatinib from U2OS cell lysate; endogenous in cells; host or cells: U2OS cell lysate
Summary of the method: as §1

[19] = target: T19, proteins of U2OS cell lysate (Homo sapiens, UniProt Q9UNM6); conditions: captured protein PSMD13, Rank 204
T19 construct: Proteins enriched by c-ponatinib from U2OS cell lysate; endogenous in cells; host or cells: U2OS cell lysate
Summary of the method: as §1

T17 sequence (P50991 whole entry): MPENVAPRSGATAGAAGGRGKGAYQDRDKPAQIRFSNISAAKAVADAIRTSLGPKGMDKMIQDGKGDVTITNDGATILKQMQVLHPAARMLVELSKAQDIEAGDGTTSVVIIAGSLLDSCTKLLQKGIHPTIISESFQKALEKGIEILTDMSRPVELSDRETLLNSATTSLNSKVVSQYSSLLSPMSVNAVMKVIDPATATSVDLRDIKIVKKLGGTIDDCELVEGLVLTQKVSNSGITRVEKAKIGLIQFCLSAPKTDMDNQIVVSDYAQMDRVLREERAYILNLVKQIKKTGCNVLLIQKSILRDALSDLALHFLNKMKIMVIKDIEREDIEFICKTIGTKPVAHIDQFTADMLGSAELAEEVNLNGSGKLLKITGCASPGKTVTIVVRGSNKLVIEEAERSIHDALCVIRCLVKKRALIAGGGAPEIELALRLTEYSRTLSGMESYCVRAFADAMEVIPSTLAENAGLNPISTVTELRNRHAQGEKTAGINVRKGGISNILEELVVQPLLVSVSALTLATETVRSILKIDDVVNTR
T9 sequence (Q9UHD8 whole entry): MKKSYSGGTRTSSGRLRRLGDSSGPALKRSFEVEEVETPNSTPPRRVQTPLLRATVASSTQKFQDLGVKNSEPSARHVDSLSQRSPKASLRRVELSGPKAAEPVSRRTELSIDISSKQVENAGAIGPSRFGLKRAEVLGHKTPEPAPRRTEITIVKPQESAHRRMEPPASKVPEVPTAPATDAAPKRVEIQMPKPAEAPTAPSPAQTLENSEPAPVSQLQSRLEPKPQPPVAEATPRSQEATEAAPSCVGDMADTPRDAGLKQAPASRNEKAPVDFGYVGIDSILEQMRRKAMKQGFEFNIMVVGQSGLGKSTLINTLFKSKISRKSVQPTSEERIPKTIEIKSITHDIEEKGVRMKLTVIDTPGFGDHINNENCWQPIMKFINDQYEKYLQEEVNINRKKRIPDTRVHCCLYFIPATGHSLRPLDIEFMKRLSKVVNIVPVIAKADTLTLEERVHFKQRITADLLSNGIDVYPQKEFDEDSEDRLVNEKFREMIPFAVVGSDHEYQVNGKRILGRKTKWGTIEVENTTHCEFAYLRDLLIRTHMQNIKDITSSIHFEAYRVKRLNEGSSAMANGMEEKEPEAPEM
T6 sequence (A1L0T0 whole entry): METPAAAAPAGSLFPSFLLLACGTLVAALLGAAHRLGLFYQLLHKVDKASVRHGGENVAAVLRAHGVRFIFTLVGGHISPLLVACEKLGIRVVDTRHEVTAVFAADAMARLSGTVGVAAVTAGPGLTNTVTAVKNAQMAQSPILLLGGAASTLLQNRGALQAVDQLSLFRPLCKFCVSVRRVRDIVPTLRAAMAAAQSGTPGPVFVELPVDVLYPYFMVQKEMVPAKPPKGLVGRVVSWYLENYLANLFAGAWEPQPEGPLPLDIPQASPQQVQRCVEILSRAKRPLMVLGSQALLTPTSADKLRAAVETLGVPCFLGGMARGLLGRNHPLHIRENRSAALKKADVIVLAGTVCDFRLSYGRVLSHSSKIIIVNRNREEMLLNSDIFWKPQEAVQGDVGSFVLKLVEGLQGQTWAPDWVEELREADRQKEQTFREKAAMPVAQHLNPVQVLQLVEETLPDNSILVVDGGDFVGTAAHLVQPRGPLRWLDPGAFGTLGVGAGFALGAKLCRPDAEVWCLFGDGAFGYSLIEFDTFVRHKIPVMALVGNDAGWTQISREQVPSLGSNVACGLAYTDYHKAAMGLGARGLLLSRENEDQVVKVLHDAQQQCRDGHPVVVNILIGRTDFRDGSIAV
T13 sequence (Q13546 whole entry): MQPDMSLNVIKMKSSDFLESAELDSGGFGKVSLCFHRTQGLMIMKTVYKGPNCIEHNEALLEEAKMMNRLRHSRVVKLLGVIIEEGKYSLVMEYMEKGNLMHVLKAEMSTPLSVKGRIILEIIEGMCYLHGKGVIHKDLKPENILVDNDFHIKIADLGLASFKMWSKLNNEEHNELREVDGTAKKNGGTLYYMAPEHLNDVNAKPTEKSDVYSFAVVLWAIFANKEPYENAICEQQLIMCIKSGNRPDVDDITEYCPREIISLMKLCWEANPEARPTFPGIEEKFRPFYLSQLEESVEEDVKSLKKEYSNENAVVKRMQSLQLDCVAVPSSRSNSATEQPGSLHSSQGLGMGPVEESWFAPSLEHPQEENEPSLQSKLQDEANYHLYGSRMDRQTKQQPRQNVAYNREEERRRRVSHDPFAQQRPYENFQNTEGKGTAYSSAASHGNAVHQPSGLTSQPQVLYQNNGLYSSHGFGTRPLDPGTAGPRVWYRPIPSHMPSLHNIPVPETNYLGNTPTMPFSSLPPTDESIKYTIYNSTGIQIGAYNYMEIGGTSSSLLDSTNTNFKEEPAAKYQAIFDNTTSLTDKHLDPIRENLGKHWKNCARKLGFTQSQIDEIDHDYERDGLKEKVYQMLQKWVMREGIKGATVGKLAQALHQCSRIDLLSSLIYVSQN
T19 sequence (Q9UNM6 whole entry): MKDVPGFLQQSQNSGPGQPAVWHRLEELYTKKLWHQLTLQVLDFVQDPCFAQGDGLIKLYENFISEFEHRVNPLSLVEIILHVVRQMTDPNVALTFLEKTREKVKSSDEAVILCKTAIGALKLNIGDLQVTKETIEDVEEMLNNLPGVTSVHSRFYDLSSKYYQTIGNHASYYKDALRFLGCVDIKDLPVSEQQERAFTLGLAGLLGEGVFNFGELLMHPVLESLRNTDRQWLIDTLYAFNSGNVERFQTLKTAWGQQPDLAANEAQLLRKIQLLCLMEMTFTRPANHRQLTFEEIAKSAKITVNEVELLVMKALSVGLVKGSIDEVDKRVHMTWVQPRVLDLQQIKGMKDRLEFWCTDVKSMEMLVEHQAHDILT
T5 sequence (P49756 whole entry): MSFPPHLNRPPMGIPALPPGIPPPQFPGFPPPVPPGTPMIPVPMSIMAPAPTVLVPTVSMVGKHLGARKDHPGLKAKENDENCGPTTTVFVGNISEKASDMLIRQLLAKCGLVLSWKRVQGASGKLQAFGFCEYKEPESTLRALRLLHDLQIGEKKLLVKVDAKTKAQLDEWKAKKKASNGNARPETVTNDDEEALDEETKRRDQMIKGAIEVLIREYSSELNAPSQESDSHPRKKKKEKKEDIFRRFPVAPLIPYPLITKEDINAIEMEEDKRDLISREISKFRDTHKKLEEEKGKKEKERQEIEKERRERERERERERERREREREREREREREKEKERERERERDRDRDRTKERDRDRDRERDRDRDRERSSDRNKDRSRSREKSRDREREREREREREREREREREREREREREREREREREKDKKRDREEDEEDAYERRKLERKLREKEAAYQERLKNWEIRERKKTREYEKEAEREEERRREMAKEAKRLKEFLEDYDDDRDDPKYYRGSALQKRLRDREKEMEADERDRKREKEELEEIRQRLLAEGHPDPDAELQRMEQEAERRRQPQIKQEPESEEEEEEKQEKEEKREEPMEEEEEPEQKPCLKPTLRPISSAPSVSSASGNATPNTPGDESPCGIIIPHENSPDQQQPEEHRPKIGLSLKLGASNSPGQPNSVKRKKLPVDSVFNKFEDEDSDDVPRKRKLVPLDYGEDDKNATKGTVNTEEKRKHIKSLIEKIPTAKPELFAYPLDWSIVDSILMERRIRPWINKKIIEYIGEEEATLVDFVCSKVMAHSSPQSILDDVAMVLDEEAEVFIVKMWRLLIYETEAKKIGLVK
T15 sequence (P29323 19-1055): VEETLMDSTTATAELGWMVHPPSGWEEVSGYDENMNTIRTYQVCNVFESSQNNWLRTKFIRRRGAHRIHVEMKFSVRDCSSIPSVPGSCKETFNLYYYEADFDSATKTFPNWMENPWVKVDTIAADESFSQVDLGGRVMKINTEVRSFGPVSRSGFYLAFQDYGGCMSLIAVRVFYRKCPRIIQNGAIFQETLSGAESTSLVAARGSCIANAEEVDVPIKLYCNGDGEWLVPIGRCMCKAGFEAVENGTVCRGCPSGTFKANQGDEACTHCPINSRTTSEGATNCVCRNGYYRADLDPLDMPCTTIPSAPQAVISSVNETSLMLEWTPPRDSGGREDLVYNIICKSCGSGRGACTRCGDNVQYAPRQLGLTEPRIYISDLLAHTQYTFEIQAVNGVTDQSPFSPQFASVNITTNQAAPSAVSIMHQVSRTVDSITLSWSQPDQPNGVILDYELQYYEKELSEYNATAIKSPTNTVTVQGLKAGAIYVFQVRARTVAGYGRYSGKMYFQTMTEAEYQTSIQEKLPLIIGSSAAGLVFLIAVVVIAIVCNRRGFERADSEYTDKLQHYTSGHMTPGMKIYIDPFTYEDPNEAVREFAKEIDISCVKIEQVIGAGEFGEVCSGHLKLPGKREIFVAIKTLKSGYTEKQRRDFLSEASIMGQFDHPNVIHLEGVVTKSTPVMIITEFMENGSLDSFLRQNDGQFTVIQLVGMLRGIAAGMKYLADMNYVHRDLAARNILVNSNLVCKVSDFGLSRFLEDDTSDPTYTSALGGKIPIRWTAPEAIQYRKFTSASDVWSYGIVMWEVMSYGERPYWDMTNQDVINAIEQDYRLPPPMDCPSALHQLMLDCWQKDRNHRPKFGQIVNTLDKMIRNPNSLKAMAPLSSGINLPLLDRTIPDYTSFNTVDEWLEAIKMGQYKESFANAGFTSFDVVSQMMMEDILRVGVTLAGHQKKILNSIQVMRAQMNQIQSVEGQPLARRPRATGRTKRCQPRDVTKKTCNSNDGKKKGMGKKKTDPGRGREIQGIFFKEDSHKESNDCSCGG
T3 sequence (O00303 whole entry): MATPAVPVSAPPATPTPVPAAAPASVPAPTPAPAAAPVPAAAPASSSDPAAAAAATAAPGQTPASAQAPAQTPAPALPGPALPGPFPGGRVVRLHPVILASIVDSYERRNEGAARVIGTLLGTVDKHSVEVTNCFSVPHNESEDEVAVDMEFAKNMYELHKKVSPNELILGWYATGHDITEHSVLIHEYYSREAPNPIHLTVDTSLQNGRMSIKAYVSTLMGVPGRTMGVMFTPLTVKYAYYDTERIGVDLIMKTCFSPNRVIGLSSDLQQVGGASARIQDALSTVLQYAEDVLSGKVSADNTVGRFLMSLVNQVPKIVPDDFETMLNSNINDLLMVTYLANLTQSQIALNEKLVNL

Compound	Average LFQ PON_WT [1]	Average LFQ PON_WT [2]	Average LFQ PON_WT [3]	Average LFQ PON_WT [4]	Average LFQ PON_WT [5]	Average LFQ PON_WT [6]	Average LFQ PON_WT [7]	Average LFQ PON_WT [8]	Average LFQ PON_WT [9]	Average LFQ PON_WT [10]	Average LFQ PON_WT [11]	Average LFQ PON_WT [12]	Average LFQ PON_WT [13]	Average LFQ PON_WT [14]	Average LFQ PON_WT [15]	Average LFQ PON_WT [16]	Average LFQ PON_WT [17]	Average LFQ intensity [18]	Average LFQ intensity [19]
Cc1ccc(C(=O)Nc2ccc(CN3CCN(C)CC3)c(C(F)(F)F)c2)cc1C#Cc1cnc2cccnn12 [PON]	20.9378	21.4936	23.4858	25.6681	20.8592	23.3851	24.6024	20.865	23.3795	24.3032	19.3053	20.8259	25.0833	19.0546	23.9034	23.7363	23.8741	–	–
Cc1ccc(C(=O)Nc2ccc(CN3CCN(CCCN)CC3)c(C(F)(F)F)c2)cc1C#Cc1cnc2cccnn12 [c-ponatinib, reference compound]	–	–	–	–	–	–	–	–	–	–	–	–	–	–	–	–	–	22.1736	21.7826
